System: acetylated tubulin (Lys40) in HeLa cells
Experiment: Acetylated α-tubulin measurement in vitro (immunocytochemistry)
Type: cell-based
Details: Homo sapiens, 6 hours incubation, acetylated tubulin (Lys40) by immunocytochemistry, read-out: IC50 (Tubulin deacetylation)
Description: HeLa cells were cultured in UltraCulture serum-free medium (Lonza) supplemented with 2 mM glutamine (Lonza). Assays were performed at 96-well or 384-well format, differences in assay protocols are detailed in Table 6. Cells per well were plated and incubated overnight at 37° C. overnight in a humidified atmosphere containing 5% CO2. Cell density and seeding volumes are detailed in Table 6. Compounds (dissolved in 100% DMSO) or DMSO (vehicle) were added manually by diluting them in culture medium at 10× final assay concentration and adding 10 μL to cells (96-well protocol). Alternatively, 50 nL compound was added directly to the cell culture using the Echo650 (Labcyte) (384-well protocol). In this assay, the final assay concentration of DMSO is 0.1%-0.4%. Trichostatin A (TSA) was used as a positive control. Cells were incubated with compounds at 37° C. in a humidified atmosphere containing 5% CO2 for 6 hours. Levels of acetylated tubulin (Lys40) were assessed by immunocytochemistry using target-specific antibodies. Cells were fixed with 4% PFA at RT as detailed in Table 6. After 2-3 wash steps with PBS, cells were permeabilized with 0.5% Triton in PBS at RT for 10 minutes followed by 1-2 washes with PBS. To avoid non-specific antibody staining, cells were blocked with 3% BSA in PBS at room temperature for 1 hour. […] Cells were washed 2-3 times with PBS and labelled for 1 h at RT with goat anti-mouse conjugated with Alexa 647 (Thermofisher) and goat anti-rabbit conjugated with Alexa 555 (Thermofisher) secondary antibodies, diluted in 1% BSA to a final concentration of 1:1000. Simultaneously, nuclei were stained with 1:10000-1:15000 Hoechst (Thermofisher). Incubation time and temperature of the primary antibodies are detailed in Table 6. Cells were washed 2-3 times with PBS and they were imaged with the Operetta CLS or Opera Phenix (PerkinElmer). Imaging is further detailed in Table 6. For imaging analysis, the Harmony analysis software (PerkinElmer) was used. Cytoplasmic (defined by total α-tubulin staining) intensities per well were used for α-tubulin (acetylated and total) quantification. Intensities were measured per cell and then averaged per well. Mean intensity levels of acetylated tubulin were normalized to the mean intensity levels of total tubulin. The changes in acetylated tubulin were normalized for each plate using GraphPad Prism software: tubulin acetylation in vehicle (DMSO)-treated cells were set to 0% while tubulin acetylation in TSA-treated cells were set to 100%. EC50 values were calculated using the log(inhibitor) vs. response—Variable slope (four parameters) nonlinear regression in GraphPad Prism software.

Row | Structure (SMILES) | IC50 [nM]
1 | O=C(CSc1nc2nc(C(F)(F)F)ccc2o1)c1ccc(CNC(=O)C2(O)CC2)s1 [Example 45, 1-hydroxy-N-((5-(2-((5-(trifluoromethyl)oxazolo[4,5-b]157yrrolid-2-yl)thio)acetyl)thiophen-2-yl)methyl)cyclopropane-1-carboxamide] | ≤ 100
2 | Cn1cc2c(SCC(=O)c3ccc(CNC(=O)C(O)C(F)(F)F)s3)nc(C(F)(F)F)nc2n1 (stereo not drawn) [Example 46, 3,3,3-trifluoro-2-hydroxy-N-((5-(2-((2-methyl-6-(trifluoromethyl)-2H-pyrazolo[3,4-d]pyrimidin-4-yl)thio)acetyl)thiophen-2-yl)methyl)propanamide] | 100 to 500
3 | O=C(CSc1nc(C(F)(F)F)nc2ccc(N3CCOCC3)cc12)c1ccc(CNC(=O)C2(O)CC2)s1 [Example 47, 1-hydroxy-N-((5-(2-((6-morpholino-2-(trifluoromethyl)quinazolin-4-yl)thio)acetyl)thiophen-2-yl)methyl)cyclopropane-1-carboxamide] | 100 to 500
4 | Cn1cc2c(SCC(=O)c3ccc(CNC(=O)C(C)(C)O)s3)nc(C(F)(F)F)nc2n1 [Example 48, 2-hydroxy-2-methyl-N-((5-(2-((2-methyl-6-(trifluoromethyl)-2H-pyrazolo[3,4-d]pyrimidin-4-yl)thio)acetyl)thiophen-2-yl)methyl)propanamide] | 100 to 500
5 | Cn1cc2c(SCC(=O)c3ccc(CNC(=O)C4(O)CC4)s3)nc(C(F)(F)F)nc2n1 [Example 49, 1-hydroxy-N-((5-(2-((2-methyl-6-(trifluoromethyl)-2H-pyrazolo[3,4-d]pyrimidin-4-yl)thio)acetyl)thiophen-2-yl)methyl)cyclopropane-1-carboxamide] | 100 to 500
6 | COc1ccc2nc(C)nc(SCC(=O)c3ccc(CNC(=O)C4(O)CC4)s3)c2c1 [Example 50, 1-hydroxy-N-((5-(2-((6-methoxy-2-methylquinazolin-4-yl)thio)acetyl)thiophen-2-yl)methyl)cyclopropane-1-carboxamide] | 100 to 500
7 | COc1ccc2nc(C)nc(SCC(=O)c3ccc(CNC(=O)C4CC4)s3)c2c1 [Example 51, N-((5-(2-((6-methoxy-2-methylquinazolin-4-yl)thio)acetyl)thiophen-2-yl)methyl)cyclopropanecarboxamide] | 1000 to 3330
8 | Cn1ncc2c(SCC(=O)c3ccc(CNC(=O)CO)s3)ncnc21 [Example 59, 2-hydroxy-N-((5-(2-((1-methyl-1H-pyrazolo[3,4-d]pyrimidin-4-yl)thio)acetyl)thiophen-2-yl)methyl)acetamide] | 100 to 500
9 | COc1ccc2nc(C)nc(SCC(=O)c3ccc(CNC(=O)CO)s3)c2c1 [Example 60, 2-Hydroxy-N-((5-(2-((6-methoxy-2-methylquinazolin-4-yl)thio)acetyl)thiophen-2-yl)methyl)acetamide] | 100 to 500
10 | Cn1cc2c(SCC(=O)c3ccc(CNC(=O)CO)s3)nc(C(F)(F)F)nc2n1 [Example 61, 2-hydroxy-N-((5-(2-((2-methyl-6-(trifluoromethyl)-2H-pyrazolo[3,4-d]pyrimidin-4-yl)thio)acetyl)thiophen-2-yl)methyl)acetamide] | ≤ 100
11 | CCc1nc(SCC(=O)c2ccc(CNC(=O)CO)s2)c2ccccc2n1 [Example 62, N-((5-(2-((2-ethylquinazolin-4-yl)thio)acetyl)thiophen-2-yl)methyl)-2-hydroxyacetamide] | 100 to 500
12 | O=C(CO)NCc1ccc(C(=O)CSc2nc(C(F)(F)F)nc3ccc(N4CCOCC4)cc23)s1 [Example 63] | 100 to 500
13 | Cc1nc(SCC(=O)c2ccc(CNC(=O)CO)s2)c2cccnc2n1 [Example 64, 2-hydroxy-N-((5-(2-((2-methylpyrido[2,3-d]pyrimidin-4-yl)thio)acetyl)thiophen-2-yl)methyl)acetamide] | ≤ 100

More lines, now with the values ahead:

Row | IC50 [nM] | Structure (SMILES)
14 | 1000 to 3330 | Cc1nc(SCC(=O)c2ccc(CNC(=O)CO)s2)c2cn(C)nc2n1 [Example 65, N-((5-(2-((2,6-dimethyl-2H-pyrazolo[3,4-d]pyrimidin-4-yl)thio)acetyl)thiophen-2-yl)methyl)-2-hydroxyacetamide]
15 | 100 to 500 | Cc1nc(SCC(=O)c2ccc(CNC(=O)CO)s2)c2ccccc2n1 [Example 66, 2-hydroxy-N-((5-(2-((2-methylquinazolin-4-yl)thio)acetyl)thiophen-2-yl)methyl)acetamide]
16 | 100 to 500 | Cc1nc(SCC(=O)c2ccc(CNC(=O)CO)s2)c2cc(F)ccc2n1 [Example 67, N-((5-(2-((6-fluoro-2-methylquinazolin-4-yl)thio)acetyl)thiophen-2-yl)methyl)-2-hydroxyacetamide]
17 | 100 to 500 | Cc1nc(SCC(=O)c2ccc(CNC(=O)CO)s2)c2ccc(F)cc2n1 [Example 68, N-((5-(2-((7-fluoro-2-methylquinazolin-4-yl)thio)acetyl)thiophen-2-yl)methyl)-2-hydroxyacetamide]
18 | 100 to 500 | Cn1cc2c(SCC(=O)c3ccc(CNC(=O)CO)s3)nc(C(F)F)nc2n1 [Example 69, N-((5-(2-((6-(difluoromethyl)-2-methyl-2H-pyrazolo[3,4-d]pyrimidin-4-yl)thio)acetyl)thiophen-2-yl)methyl)-2-hydroxyacetamide]
19 | 100 to 500 | COc1ccc2c(SCC(=O)c3ccc(CNC(=O)CO)s3)nc(C)nc2c1 [Example 70, 2-hydroxy-N-((5-(2-((7-methoxy-2-methylquinazolin-4-yl)thio)acetyl)thiophen-2-yl)methyl)acetamide]
20 | ≤ 100 | O=C(CO)NCc1ccc(C(=O)CSc2nc3cc(C(F)(F)F)ncc3o2)s1 [Example 71, 2-hydroxy-N-((5-(2-((6-(trifluoromethyl)oxazolo[5,4-c]156yrrolid-2-yl)thio)acetyl)thiophen-2-yl)methyl)acetamide]
21 | ≤ 100 | O=C(CO)NCc1ccc(C(=O)CSc2nc3nc(C(F)(F)F)ccc3o2)s1 [Example 72, 2-hydroxy-N-((5-(2-((5-(trifluoromethyl)oxazolo[4,5-b]156yrrolid-2-yl)thio)acetyl)thiophen-2-yl)methyl)acetamide]
22 | 100 to 500 | Cc1nc(SCC(=O)c2ccc(CNC(=O)CO)s2)c2cc(Cl)c(F)cc2n1 [Example 73, N-((5-(2-((6-chloro-7-fluoro-2-methylquinazolin-4-yl)thio)acetyl)thiophen-2-yl)methyl)-2-hydroxyacetamide]
23 | 100 to 500 | Cn1ncc2c(SCC(=O)c3ccc(CNC(=O)CO)s3)nc(C(F)(F)F)nc21 [Example 74, 2-hydroxy-N-((5-(2-((1-methyl-6-(trifluoromethyl)-1H-pyrazolo[3,4-d]pyrimidin-4-yl)thio)acetyl)thiophen-2-yl)methyl)acetamide]
24 | ≤ 100 | Cc1nc(SCC(=O)c2ccc(CNC(=O)CO)s2)c2cc(C(F)(F)F)ccc2n1 [Example 76, 2-hydroxy-N-((5-(2-((2-methyl-6-(trifluoromethyl)quinazolin-4-yl)thio)acetyl)thiophen-2-yl)methyl)acetamide]
25 | 100 to 500 | Cc1nc(SCC(=O)c2ccc(CNC(=O)CO)s2)c2cc(OC3CC3)ccc2n1 [Example 77, N-((5-(2-((6-cyclopropoxy-2-methylquinazolin-4-yl)thio)acetyl)thiophen-2-yl)methyl)-2-hydroxyacetamide]
26 | 100 to 500 | Cc1nc(SCC(=O)c2ccc(CNC(=O)CO)s2)c2cc(NCC3CC3)ccc2n1 [Example 78, N-((5-(2-((6-((cyclopropylmethyl)amino)-2-methylquinazolin-4-yl)thio)acetyl)thiophen-2-yl)methyl)-2-hydroxyacetamide]
27 | ≤ 100 | O=C(CO)NCc1ccc(C(=O)CSc2nc(C(F)(F)F)nc3nn(C4CC4)cc23)s1 [Example 79, N-((5-(2-((2-cyclopropyl-6-(trifluoromethyl)-2H-pyrazolo[3,4-d]pyrimidin-4-yl)thio)acetyl)thiophen-2-yl)methyl)-2-hydroxyacetamide]
28 | 100 to 500 | COc1ccc2nc(C(F)(F)F)nc(SCC(=O)c3ccc(CNC(=O)CO)s3)c2c1 [Example 80, 2-hydroxy-N-((5-(2-((6-methoxy-2-(trifluoromethyl)quinazolin-4-yl)thio)acetyl)thiophen-2-yl)methyl)acetamide]
29 | 100 to 500 | Cc1nc(SCC(=O)c2ccc(CNC(=O)CO)s2)c2cc(N3CCOCC3)ccc2n1 [Example 81, 2-hydroxy-N-((5-(2-((2-methyl-6-morpholinoquinazolin-4-yl)thio)acetyl)thiophen-2-yl)methyl)acetamide]
30 | ≤ 100 | Cc1nc(SCC(=O)c2ccc(CNC(=O)CO)s2)c2cc(N3CCCCC3)ccc2n1 [Example 82, 2-hydroxy-N-((5-(2-((2-methyl-6-(piperidin-1-yl)quinazolin-4-yl)thio)acetyl)thiophen-2-yl)methyl)acetamide]

— US12421222B2 (AUGUSTINE THERAPEUTICS, priority 2021, dated 2025)
